Measured values reported in patent publication US7265131B2, “Isoquinolinone derivatives and their use as therapeutic agents” (Exelixis, Inc., priority 2002, dated 2007).

Target: T1, LXR α (Homo sapiens, UniProt Q13133)
T1 construct: Co-transfection expression plasmids, comprising full-length LXR α (pCMX-hLXR α); expressed in transfected cells; host or cells: CV-1 African Green Monkey kidney cells, transient transfection
T1 sequence (Q13133 1-447): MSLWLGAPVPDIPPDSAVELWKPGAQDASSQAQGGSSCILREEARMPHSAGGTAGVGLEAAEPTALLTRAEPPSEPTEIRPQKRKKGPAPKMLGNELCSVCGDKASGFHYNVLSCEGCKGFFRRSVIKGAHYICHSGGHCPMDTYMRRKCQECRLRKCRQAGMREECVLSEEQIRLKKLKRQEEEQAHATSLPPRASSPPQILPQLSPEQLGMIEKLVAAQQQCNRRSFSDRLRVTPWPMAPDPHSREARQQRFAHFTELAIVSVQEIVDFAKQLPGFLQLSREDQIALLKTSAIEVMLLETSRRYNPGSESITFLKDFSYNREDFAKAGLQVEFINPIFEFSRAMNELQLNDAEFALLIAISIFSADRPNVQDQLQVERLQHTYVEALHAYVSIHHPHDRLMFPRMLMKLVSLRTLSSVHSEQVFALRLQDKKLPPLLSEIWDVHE
T1 sequence (P19793 1-462 partner): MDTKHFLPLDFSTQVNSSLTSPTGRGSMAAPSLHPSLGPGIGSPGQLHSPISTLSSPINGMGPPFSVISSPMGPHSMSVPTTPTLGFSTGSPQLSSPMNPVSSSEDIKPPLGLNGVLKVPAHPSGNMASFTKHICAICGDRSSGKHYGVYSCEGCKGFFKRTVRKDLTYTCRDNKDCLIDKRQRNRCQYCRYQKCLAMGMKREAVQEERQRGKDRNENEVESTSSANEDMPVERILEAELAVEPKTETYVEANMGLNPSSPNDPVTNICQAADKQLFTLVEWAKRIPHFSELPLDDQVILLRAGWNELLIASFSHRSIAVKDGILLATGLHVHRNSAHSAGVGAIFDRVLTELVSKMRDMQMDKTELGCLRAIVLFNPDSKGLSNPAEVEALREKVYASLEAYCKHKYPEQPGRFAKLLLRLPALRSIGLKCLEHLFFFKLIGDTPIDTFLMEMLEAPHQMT
Assay: LXR/LXRE co-transfection assay (luciferase reporter, CV-1 cells)
Assay type: cell-based
Details: for Emax: CV-1, average percent efficacy, relative to control N-(3-((4-fluorophenyl)-(naphthalene-2-sulfonyl)amino)propyl)-2,2-dimethylpropionamide, read-out: % Eff(a); for EC50: average EC50 for agonism, cotransfection assay, CV-1 cells
Description: To measure the ability of compounds to activate or inhibit the transcriptional activity of LXR in a cell based assay, the co-transfection assay was used. It has been shown that LXR functions as a heterodimer with RXR. For the co-transfection assay, expression plasmids for LXR and RXR are introduced via transient transfection into mammalian cells along with a luciferase reporter plasmid that contains one copy of a DNA sequence that is bound by LXR-RXR heterodimers (LXRE; Willy, P. et al. 1995). Treatment of transfected cells with an LXR agonist increases the transcriptional activity of LXR, which is measured by an increase in luciferase activity.
1. CV-1 African Green Monkey Kidney Cells
2. Co-transfection expression plasmids, comprising full-length LXR α (pCMX-hLXR α), LXR β (pCMX-hLXR β), or RXR α (pCMX-RXR), reporter plasmid (LXREx1-Tk-Luciferase), and control (pCMX-Galactosidase expression vector) (Willey et al. Genes & Development 9 1033-1045 (1995)).
CV-1 cells were prepared 24 hours prior to the experiment by plating them into T-175 flasks or 500 cm^2 dishes in order to achieve 70-80% confluency on the day of the transfection. The number of cells to be transfected was determined by the number of plates to be screened. Each 384 well plate requires 1.92×10^6 cells or 5000 cells per well. DNA Transfection Reagent was prepared by mixing the required plasmid DNAs with a cationic lipid transfection reagent FuGENE6 (Roche) by following the instructions provided with the reagents. Optimal DNA amounts were determined empirically per cell line and size of vessel to be transfected. 10-12 mL of media was added to the DNA Transfection Reagent and this mixture was added to the cells after aspirating media from the T175 cm^2 flask. Cells were then incubated at least 5 hours at 37° C. to prepare screening cells.
Luciferase assay reagent was prepared by combining before use (per 10 mL):
Assay plates were prepared by dispensing 5 μL of compound per well of a 384 well plate to achieve final compound concentration of 10 μM and no more than 1% DMSO. Media was removed from the screening cells, the cells trypsinized, harvested cells by centrifugation, counted, and plated at a density of approximately 5000 cells per well in the 384 well assay plate prepared above in a volume of about 45 μL. Assay plates containing both compounds and screening cells (50 μL in total volume) were incubated for 20 hours at 37° C.
After incubation with compounds, media was removed from the cells and lysis buffer (30 μuL/well) added. After 30 minutes at ambient temperature, luciferase assay buffer (30 μL/well) was added and the assay plates read on a luminometer (PE Biosystems Northstar reader with on-board injectors, or equivalent). Plates were read immediately after addition of luciferase assay buffer.
The LXR/LXRE co-transfection assay can be used to establish the EC50/IC50 values for potency and percent activity or inhibition for efficacy. Efficacy defines the activity of a compound relative to a high control ((N-(3-((4-fluorophenyl)-(naphthalene-2-sulfonyl)amino)propyl)-2,2-dimethylpropionamide)) or a low control (DMSO/vehicle). The dose response curves are generated from an 8 point curve with concentrations differing by ½ LOG units. Each point represents the average of 4 wells of data from a 384 well plate.
The data from this assay is fitted to the following equation, from the EC50 value may be solved: Y=Bottom+(Top-Bottom)/(1+10^((logEC50-X*HillSlope))
The EC50/IC50 is therefore defined as the concentration at which an agonist or antagonist elicits a response that is half way between the Top (maximum) and Bottom (baseline) values. The EC50/IC50 values represented are the averages of at least 3 independent experiments. […]

| Compound | Emax [%] | EC50 [nM] |
| --- | --- | --- |
| O=c1c2c(Cl)cccc2cc(-c2cc(-c3cc(C(F)(F)F)cc(C(F)(F)F)c3)co2)n1Cc1ccc(F)cc1F [3-[4-(3,5-bis-trifluoromethylphenyl)furan-2-yl]-8-chloro-2-(2,4-difluorobenzyl)-2H-isoquinolin-1-one] | 40 to 90 | 10 to 150 |
| Nc1ccc(-c2coc(-c3cc4cccc(Cl)c4c(=O)n3Cc3ccc(F)cc3F)c2)cc1C(F)(F)F [3-[4-(4-amino-3-trifluoromethylphenyl)furan-2-yl]-8-chloro-2-(2,4-difluorobenzyl)-2H-isoquinolin-1-one] | > 90 | < 10 |
| O=c1c2c(Cl)cccc2cc(-c2ccc(Oc3cnccn3)cc2)n1Cc1ccc(F)cc1F [8-chloro-2-(2,4-difluorobenzyl)-3-[4-(pyrazin-2-yloxy)phenyl]-2H-isoquinolin-1-one] | > 90 | < 10 |
| CS(=O)(=O)c1ccc(-c2ccc(-c3cc4cccc(Cl)c4c(=O)n3Cc3ccc(F)cc3F)s2)cc1 [8-chloro-2-(2,4-difluorobenzyl)-3-[5-(4-methanesulfonylphenyl)thiophen-2-yl]-2H-isoquinolin-1-one] | 40 to 90 | 10 to 150 |
| O=c1c2c(Cl)cccc2cc(-c2ccc(Oc3ccccc3)cc2)n1CC1CCCCC1 [8-chloro-2-cyclohexylmethyl-3-(4-phenoxyphenyl)-2H-isoquinolin-1-one] | 40 to 90 | 10 to 150 |
| O=c1c2c(Cl)cccc2cc(-c2ccc(Oc3ccccc3)cc2)n1Cc1cccs1 [8-chloro-3-(4-phenoxyphenyl)-2-thiophen-2-ylmethyl-2H-isoquinolin-1-one] | 40 to 90 | 10 to 150 |
| CCOc1ccc(-c2csc(-c3cc4cccc(Cl)c4c(=O)n3Cc3ccc(F)cc3F)c2)cc1Cl [8-chloro-3-[4-(3-chloro-4-ethoxyphenyl)thiophen-2-yl]-2-(2,4-difluorobenzyl)-2H-isoquinolin-1-one] | 40 to 90 | 10 to 150 |

Next, values leading:

| Emax [%] | EC50 [nM] | Compound |
| --- | --- | --- |
| 40 to 90 | > 500 | Cc1ccc(Cn2c(C#CC(C)(C)O)cc3ccccc3c2=O)c(C)c1 [2-(2,4-dimethylbenzyl)-3-(3-hydroxy-3-methylbut-1-ynyl)-2H-isoquinolin-1-one] |
| > 90 | 10 to 150 | Cc1ccc(Cn2c(-c3ccc(Oc4ccccc4)cc3)cc3ccccc3c2=O)c(C)c1 [2-(2,4-dimethylbenzyl)-3-(4-phenoxyphenyl)-2H-isoquinolin-1-one] |
| 40 to 90 | 150 to 500 | Cc1cccc(-c2cc3ccccc3c(=O)n2Cc2ccc(C)cc2C)c1 [2-(2,4-dimethylbenzyl)-3-m-tolyl-2H-isoquinolin-1-one] |
| 40 to 90 | > 500 | Cc1ccc(Cn2c(-c3ccsc3)cc3ccccc3c2=O)c(C)c1 [2-(2,4-dimethylbenzyl)-3-thiophen-3-yl-2H-isoquinolin-1-one] |
| < 40 | > 500 | Cc1cccc(-c2cc3ccccc3c(=O)n2Cc2ccccc2)c1 [2-benzyl-3-m-tolyl-2H-isoquinolin-1-one] |
| > 90 | 10 to 150 | O=c1c2c(Cl)cccc2cc(-c2ccc(Oc3ccccc3)cc2)n1Cc1ccc(F)cc1F [8-chloro-2-(2,4-difluorobenzyl)-3-(4-phenoxyphenyl)-2H-isoquinolin-1-one] |
| 40 to 90 | 10 to 150 | Cc1ccc(Cn2c(-c3ccc(Oc4ccccc4)cc3)cc3cccc(C)c3c2=O)cc1 [8-methyl-2-(4-methylbenzyl)-3-(4-phenoxyphenyl)-2H-isoquinolin-1-one] |
